Test results from patent publication US20110195924A1, “Methods of Inhibiting the Interaction Between S100P and the Receptor for Advanced Glycation End-Products” (priority 2008, published 2011).
Entries after “also recorded” stand apart in the source; their conditions may differ.

Key:
[1] = system: NFκB activity; assay: S100P stimulated NFκB luciferase reporter in MPanc-96 cells; format: cell-based, Human; conditions: S100P 100 nM, 5 hours
Method: MPanc-96 pancreatic cancer cell lines stably expressing an NFκB luciferase reporter were examined for the effects of S100P, cromolyn and C5. Cells were plated at 5.0×10^3 cells/well, treated for 5 hours with 100 nM of S100P, with or without cromolyn and C5 (1 μM), and activity of a luciferase gene driven by the NFkB promoter was analyzed. P=0.05 C5 versus cromolyn. Two-tailed two-sample (unpaired) Student's t-tests were used to determine P values.

[2] = system: BxPC-3 cells; assay: BxPC-3 cell viability, alone or with gemcitabine; format: cell-based; conditions: 72 hours
Method: BxPC-3 cells were plated at 1.0×10^3 cells/well and treated with 0 μM, 1 μM, 10 μM, and 100 μM of cromolyn or C5 alone or in combination with gemcitabine 1 μM and cell viability was analyzed after 72 hours. Two-tailed two-sample (unpaired) Student's t-tests were used to determine P values. […] BxPC-3 cells were plated at 1.0×10^3 cells/well and treated with either 100 μM of cromolyn or 1 μM C5 alone or in combination with gemcitabine (1 μM) and cell viability was analyzed after 72 hours.

[3] = molecular target: T1, S100B with RAGE (Homo sapiens, UniProt P04271); assay: ELISA of S100B binding to RAGE (sRAGE coated plate)
T1 sequence (P04271 1-92): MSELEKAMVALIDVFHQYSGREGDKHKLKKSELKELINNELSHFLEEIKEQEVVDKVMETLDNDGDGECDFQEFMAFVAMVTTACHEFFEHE
Description: After removing un-bound S100B by washing with detergent, bound S100B and RAGE complex was quantified by adding HRP labeled antibody against S100B.

[4] = system: MPanc-96 cells; assay: MPanc-96 cell apoptosis by flow cytometry, alone or with gemcitabine; format: cell-based, Human; conditions: 100 and 1000 nM, 72 hours
Method: FIG. 11 compares the effects of cromolyn and C5 alone and in combination with gemcitabine on MPanc-96 cell apoptosis. MPanc-96 cells were treated with cromolyn or C5 (100 and 1000 nM) with (+) or without (−) gemcitabine (10 μM). Apoptosis was analyzed after 72 hours by flow cytometry.

[5] = system: pancreatic cancer cells; assay: Apoptosis of pancreatic cancer cells with cromolyn analogs and cytotoxic drugs; format: cell-based
Method: (§1) Various cromolyn-based analogs were developed. The effects of the analogs on binding of S100P with RAGE were evaluated for the analogs using a sandwich ELISA. The effectiveness of the analogs to block cancer cell proliferatin and increase apoptosis in vitro were analyzed with and without cisplatin, 5-flurouracil and gemcitabine by MTS and FACS analysis. We also examined the ability of the analogs to inhibit S100P activation of NFkB signaling in cancer cells in vitro and in vivo. Finally, the effects of the novel analogs on tumor growth in vivo was evaluated. One analog, C5OH is shown below:
In this in vitro study, pancreatic cancer cells were treated with gemcitabine alone or in the presence of cromolyn analogs. The cromolyn analogs themselves have very little effect on the rates of cellular apoptosis, supporting their absence of general toxicity. However, all cromolyn analogs increased the killing of pancreatic cancer cells by gemcitabine.

[6] = system: MPanc96 tumors; assay: MPanc96 pancreatic tumor growth and survival in mice (analogs); format: in vivo; conditions: mouse, in vivo
Method: as §1
Animals were implanted with MPanc96 cells, a gemcitabine resistant model of pancreatic cancer, and then treated with gemcitabine, C5OH, or the combination. […] Noteworthy, the addition of the hydroxyl group to the carbon chain in C5 allows easy modifications of this molecule. The hydroxyl can be substituted with fluoride that can be labeled for in vivo PET imaging. This hydroxyl can also be used to develop a pro-drug form of C5 by attaching other components with an ester bond.

[7] = molecular target: T2, S100P binding with RAGE (Homo sapiens, UniProt P25815); assay: ELISA of S100P binding to RAGE (sRAGE coated plate)
T2 construct: full-length human S100P cDNA (NM_005980) was cloned into the pTrcHis2 vector; His; made in house; host or cells: bacteria (S100P)
T2 sequence (P25815 1-95): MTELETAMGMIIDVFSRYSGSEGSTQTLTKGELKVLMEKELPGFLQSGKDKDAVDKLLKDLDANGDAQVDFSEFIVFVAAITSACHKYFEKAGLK
Method: After removing un-bound S100P by washing with detergent, the bound S100P and RAGE complex was quantified by adding HRP labeled antibody against S100P. *, P=0.04 C5 1 μM versus cromolyn 5 μM. Two-tailed two-sample (unpaired) Student's t-tests were used to determine P values.
The plate was washed and the amount of bound S100P was quantitated using anti-S100P antibody.
The binding of S100P to RAGE was determined using an ELISA assay. sRAGE was attached to the dish and recombinant S100P (50 ng) was added with or without the indicated concentrations of cromolyn analogs. The plate was washed and the amount of bound S100P was quantitated using anti-S100P antibody.

[8] = system: NFkB activity; assay: S100P induced NFkB activity in cancer cells (analogs); format: cell-based
Method: Various cromolyn-based analogs were developed. The effects of the analogs on binding of S100P with RAGE were evaluated for the analogs using a sandwich ELISA. The effectiveness of the analogs to block cancer cell proliferatin and increase apoptosis in vitro were analyzed with and without cisplatin, 5-flurouracil and gemcitabine by MTS and FACS analysis. We also examined the ability of the analogs to inhibit S100P activation of NFkB signaling in cancer cells in vitro and in vivo. Finally, the effects of the novel analogs on tumor growth in vivo was evaluated.

In the case of `O=C([O-])c1cc(=O)c2c(OCCCCCOc3cccc4oc(C(=O)[O-])cc(=O)c34)cccc2o1.[Na+].[Na+]` [C5, disodium 1,5-bis(2-carboxychromon-5-yloxy)pentane], the “reduction of S100P induced NFκB activity relative to cromolyn at the same dose” value ([1]; 1 μM) is reported as “much better than cromolyn”, the “NFκB activity in pancreatic cancer cells in vitro” value ([1]; compound 1 μM) is reported as “inhibit” and the “inhibiting cell viability in combination with gemcitabine, relative to cromolyn” value ([2]; BxPC-3, 1-100 μM with gemcitabine 1 μM) is reported as “more potent and efficacious”. For the same molecule, the “blocking cell growth alone, relative to cromolyn” value ([2]; BxPC-3, 10 or 100 μM) was “more potent and more efficacious than cromolyn”, the “concentration giving the same level of cell reduction in combination with gemcitabine” value ([2]; BxPC-3, gemcitabine 1 μM, FIG. 10) was 1 µM and the BxPC-3 cell viability ([2]; alone and in conjunction with gemcitabine 1 μM) was “inhibit”. The “interaction of S100B with RAGE” value [3] was “inhibit”, the “apoptosis in combination with gemcitabine, relative to cromolyn with gemcitabine” value ([4]; MPanc-96, gemcitabine 10 μM) was “induced more apoptosis than cromolyn” and the MPanc-96 cell viability ([4]; alone and in conjunction with gemcitabine 10 μM) was “inhibit”. For the same molecule, the “cancer cell apoptosis in response to various cytoxic treatments, relative to cromolyn” value [5] was “at lesser concentrations and to a greater extent than did cromolyn”, the “killing of pancreatic cancer cells by gemcitabine” value ([5]; with gemcitabine, C5 and C5OH at 10-fold lower concentration than cromolyn) was “worked equally well” and the “inhibition of tumor growth and survival in vivo, relative to cromolyn” value [6] was “superior to cromolyn”. The “blocking of the interaction / binding of S100P with RAGE” value [7] was “blocked”, the “concentration achieving the same level of S100P inhibition” value ([7]; FIG. 7) was 100 nM and the “potency in blocking S100P binding to RAGE relative to cromolyn or C5” value ([7]; analogs at 10-fold lower concentration than cromolyn) was “nearly equally potent and more efficient than cromolyn; also recorded: better than cromolyn”. The “inhibition of S100P induced NFkB activity relative to cromolyn” value [8] was “more potently and effectively than did cromolyn”.
